Where two headings read alike, the source gives them in different places.
Key:
[1] = system: L. mexicana MNYC/BZ/62/M379 promastigotes; experiment: In vitro leishmanicidal evaluation on promastigotes (MTT), strain M379; format: cell-based; conditions: read-out: Leishmania mexicana IC50 (µM ± SD) M379
Description: (§1) The metabolic activity of the cells was determined using the method of 3-(4,5-Dimethylthiazol-2-yl)-2,5-diphenyltetrazolium bromide (MTT). The half-maximum inhibitory concentration (IC50) was determined using probit analysis. Three independent assays were each performed in triplicate. Biostat software was used to analyze the data for statistically significant data (p < 0.05).

[2] = system: L. mexicana MHOM/MX/2017/UABJO17FCQEPS promastigotes; experiment: In vitro leishmanicidal evaluation on promastigotes (MTT), strain FCQEPS; format: cell-based; conditions: 48 h, read-out: Leishmania mexicana IC50 (µM ± SD) FCQEPS
Description: as §1

[3] = Cytotoxicity in murine macrophages (MTT); format: cell-based, mouse; conditions: mouse, 37 °C, read-out: J774.2 Cell Line CC50 (µM ± SD)
Description: (§2) This assay was performed on mouse macrophages from the J774.2 cell line that were recloned from the original ascites and solid tumor J774.1 (according to the fabricant). The cells were cultured in RPMI medium supplemented with 10% SFB, […] penicillin, 100 ug/mL streptomycin, and glutamine (2 mM) at 37 °C and in a 5% CO2 atmosphere. The medium was changed at intervals of every 2 to 3 days. […] Cells in the presence of the maximum concentration of DMSO (0.2%) were included as a negative control. The metabolic activity of the cells was determined using the MTT method. The percentage of cell viability was calculated, and the mean cytotoxic concentration (CC50) was determined using probit analysis. Three independent assays were each performed in triplicate. The selectivity index (SI) was calculated for the promastigotes of L. mexicana and the autochthonous isolate (CC50/IC50).

J774.2 cell line = experiment: Cytotoxicity in murine macrophages (MTT); format: cell-based, mouse; conditions: 48 h, 37 °C, read-out: J774.2 Cell Line CC50 (µM ± SD)
Description: as §2

[4] = system: promastigote of both L. mexicana strains; experiment: In vitro leishmanicidal activity, promastigote of both L. mexicana strains (abstract); format: cell-based, Leishmania mexicana; conditions: rounded value of the abstract
Description: Promastigotes from the reference strain of L. mexicana (MNYC/BZ/62/M379) and the autochthonous isolate of L. mexicana (MHOM/MX/2017/UABJO17FCQEPS) were used in the in vitro studies. Parasites were preserved in RPMI 1640 supplemented with 10% fetal bovine serum (FBS), 100 U/mL penicillin, 100 ug/mL streptomycin, and glutamine (2 mM). The parasites, in their logarithmic growth phase (5 × 10^5 parasites/mL), were incubated in 96-well plates with the compounds under different concentrations (0.78–100 µM) dissolved in dimethyl sulfoxide (DMSO) in a final volume of 200 µL for 48 h at 26 °C. Parasites in the presence of DMSO (0.2%) were included as a negative control. […] The metabolic activity of the cells was determined using the method of 3-(4,5-Dimethylthiazol-2-yl)-2,5-diphenyltetrazolium bromide (MTT). The half-maximum inhibitory concentration (IC50) was determined using probit analysis. Three independent assays were each performed in triplicate. Biostat software was used to analyze the data for statistically significant data (p < 0.05).

[5] = Leishmania mexicana, promastigotes, strain MNYC/BZ/62/M379, 48 h, 26 °C, MTT
[6] = Leishmania mexicana, promastigotes, strain MHOM/MX/2017/UABJO17FCQEPS, 26 °C, MTT

Compound	IC50 [1, 5] [µM]	IC50 [2, 6] [µM]	CC50 (J774.2 cell line) [µM]	further results
C[C@H]1[C@H](C)CC[C@]2(C(=O)O)CC[C@]3(C)C(=CC[C@@H]4[C@@]5(C)CC[C@H](O)C(C)(C)[C@@H]5CC[C@]43C)[C@H]12 [Compound B-3, ursolic acid]	> 200	87.2 ± 7.05		CC50 at 48 h ([3]; J774.2 macrophage cells): 49.2 ± 5.53 µM
CC1(C)[C@@H](O)CC[C@]2(C)[C@H]3C(=O)C=C4[C@@H]5C[C@@](C)(C(=O)O)CC[C@]5(C)CC[C@@]4(C)[C@]3(C)CC[C@@H]12 [Compound S-3, glycyrrhetinic acid]	44.2 ± 5.03	145 ± 12.1	> 100	
CNC(=O)c1cc(Oc2ccc(NC(=O)Nc3ccc(Cl)c(C(F)(F)F)c3)cc2)ccn1 [Compound S-7, sorafenib]				IC50 ([1]; Leishmania mexicana, 48 h): 24.9 ± 3.08 µM; IC50 ([2]; Leishmania mexicana): 166 ± 18.1 µM; CC50 at 48 h [3]: 64.9 ± 9.58 µM
CCc1cc2c(cc1CC)CC(NC[C@H](O)c1ccc(O)c3[nH]c(=O)ccc13)C2 [Compound S-8, indacaterol]	55.1 ± 2.34	56 ± 5.87	> 100	IC50 ([4]; Leishmania mexicana): 55 µM
Glucantime				IC50 ([1]; promastigotes, strain MNYC/BZ/62/M379, 48 h, 26 °C, MTT): 134 ± 2.79 µM; IC50 ([2]; promastigotes, strain MHOM/MX/2017/UABJO17FCQEPS, 26 °C, MTT): 125 ± 11.6 µM; IC50 [4]: 133 µM
